Test results from the NIST ThermoML archive (doi:10.1021/acs.jced.8b00975).
± gives the expanded uncertainty stated by the source.

Test: xn = mol fraction of the nth substance listed
Conditions: Liquid, Vibrating tube method

C=C(C)C(=O)OCCN(C)C [2-(dimethylamino)ethyl methylpropenoate] + CO
mass density [kg/m3]
Conditions | 100 kPa | 5000 kPa | 10000 kPa | 15000 kPa | 20000 kPa | 25000 kPa | 30000 kPa | 35000 kPa
293.15 K, x1 = 0.0227 | 806.56 ± 0.51 | 811.24 ± 0.52 | 815.62 ± 0.53 | 819.73 ± 0.54 | 823.64 ± 0.55 | 827.39 ± 0.56 | 831.04 ± 0.57 | 834.64 ± 0.58
293.15 K, x1 = 0.0807 | 837.79 ± 0.51 | 842.2 ± 0.52 | 846.3 ± 0.52 | 850.16 ± 0.53 | 853.82 ± 0.54 | 857.37 ± 0.54 | 860.86 ± 0.55 | 864.36 ± 0.56
293.15 K, x1 = 0.1196 | 853.33 ± 0.51 | 857.5 ± 0.51 | 861.44 ± 0.52 | 865.18 ± 0.52 | 868.77 ± 0.53 | 872.24 ± 0.54 | 875.62 ± 0.54 | 878.97 ± 0.55
293.15 K, x1 = 0.2003 | 877.11 ± 0.51 | 881.14 ± 0.51 | 884.9 ± 0.52 | 888.45 ± 0.52 | 891.85 ± 0.53 | 895.18 ± 0.53 | 898.5 ± 0.53 | 901.87 ± 0.54
293.15 K, x1 = 0.3189 | 898.63 ± 0.51 | 902.57 ± 0.51 | 906.24 ± 0.52 | 909.71 ± 0.52 | 913.03 ± 0.52 | 916.26 ± 0.53 | 919.46 ± 0.53 | 922.7 ± 0.53
293.15 K, x1 = 0.4003 | 908.22 ± 0.51 | 912.08 ± 0.51 | 915.72 ± 0.52 | 919.18 ± 0.52 | 922.49 ± 0.52 | 925.73 ± 0.53 | 928.92 ± 0.53 | 932.12 ± 0.53
293.15 K, x1 = 0.4502 | 912.84 ± 0.51 | 916.76 ± 0.51 | 920.42 ± 0.52 | 923.87 ± 0.52 | 927.16 ± 0.52 | 930.33 ± 0.53 | 933.44 ± 0.53 | 936.53 ± 0.53
293.15 K, x1 = 0.4914 | 916.03 ± 0.51 | 919.88 ± 0.51 | 923.47 ± 0.52 | 926.87 ± 0.52 | 930.13 ± 0.52 | 933.31 ± 0.53 | 936.47 ± 0.53 | 939.66 ± 0.53
293.15 K, x1 = 0.5451 | 919.46 ± 0.51 | 923.35 ± 0.52 | 926.95 ± 0.52 | 930.34 ± 0.52 | 933.58 ± 0.52 | 936.74 ± 0.53 | 939.88 ± 0.53 | 943.07 ± 0.53
293.15 K, x1 = 0.6446 | 924.39 ± 0.52 | 928.12 ± 0.52 | 931.65 ± 0.52 | 935.02 ± 0.53 | 938.27 ± 0.53 | 941.45 ± 0.53 | 944.62 ± 0.53 | 947.8 ± 0.53
293.15 K, x1 = 0.6899 | 926.07 ± 0.52 | 929.92 ± 0.52 | 933.48 ± 0.52 | 936.82 ± 0.53 | 940.01 ± 0.53 | 943.12 ± 0.53 | 946.23 ± 0.53 | 949.4 ± 0.54
293.15 K, x1 = 0.8265 | 930.1 ± 0.53 | 933.94 ± 0.53 | 937.53 ± 0.53 | 940.91 ± 0.54 | 944.15 ± 0.54 | 947.29 ± 0.54 | 950.41 ± 0.54 | 953.56 ± 0.55
293.15 K, x1 = 0.8957 | 931.56 ± 0.53 | 935.27 ± 0.54 | 938.82 ± 0.54 | 942.24 ± 0.54 | 945.55 ± 0.55 | 948.77 ± 0.55 | 951.92 ± 0.55 | 955.03 ± 0.55
293.15 K, x1 = 0.9213 | 931.89 ± 0.53 | 935.76 ± 0.54 | 939.37 ± 0.54 | 942.76 ± 0.55 | 946.01 ± 0.55 | 949.17 ± 0.55 | 952.32 ± 0.55 | 955.5 ± 0.56
293.15 K, x1 = 0.977 | 932.63 ± 0.54 | 936.53 ± 0.54 | 940.13 ± 0.55 | 943.52 ± 0.55 | 946.76 ± 0.55 | 949.92 ± 0.56 | 953.08 ± 0.56 | 956.32 ± 0.56
303.15 K, x1 = 0.0301 | 802.01 ± 0.51 | 806.85 ± 0.52 | 811.37 ± 0.53 | 815.62 ± 0.54 | 819.63 ± 0.55 | 823.45 ± 0.56 | 827.13 ± 0.57 | 830.7 ± 0.58
303.15 K, x1 = 0.0604 | 818.68 ± 0.51 | 823.37 ± 0.52 | 827.77 ± 0.52 | 831.91 ± 0.53 | 835.85 ± 0.54 | 839.61 ± 0.55 | 843.23 ± 0.56 | 846.75 ± 0.57
303.15 K, x1 = 0.1003 | 836.41 ± 0.51 | 840.87 ± 0.52 | 845.1 ± 0.52 | 849.12 ± 0.53 | 852.97 ± 0.54 | 856.67 ± 0.54 | 860.27 ± 0.55 | 863.78 ± 0.56
303.15 K, x1 = 0.1894 | 864.5 ± 0.51 | 868.73 ± 0.51 | 872.74 ± 0.52 | 876.58 ± 0.52 | 880.26 ± 0.53 | 883.85 ± 0.53 | 887.36 ± 0.54 | 890.85 ± 0.55
303.15 K, x1 = 0.3009 | 886 ± 0.51 | 890.03 ± 0.51 | 893.92 ± 0.52 | 897.69 ± 0.52 | 901.34 ± 0.53 | 904.9 ± 0.53 | 908.38 ± 0.53 | 911.78 ± 0.54
303.15 K, x1 = 0.4011 | 898.17 ± 0.51 | 902.15 ± 0.51 | 905.98 ± 0.52 | 909.67 ± 0.52 | 913.27 ± 0.53 | 916.78 ± 0.53 | 920.23 ± 0.53 | 923.64 ± 0.53
303.15 K, x1 = 0.4497 | 902.64 ± 0.51 | 906.61 ± 0.52 | 910.42 ± 0.52 | 914.09 ± 0.52 | 917.65 ± 0.52 | 921.14 ± 0.53 | 924.58 ± 0.53 | 928.02 ± 0.53
303.15 K, x1 = 0.5004 | 906.39 ± 0.51 | 910.32 ± 0.52 | 914.1 ± 0.52 | 917.76 ± 0.52 | 921.33 ± 0.53 | 924.83 ± 0.53 | 928.29 ± 0.53 | 931.73 ± 0.53
303.15 K, x1 = 0.5484 | 909.57 ± 0.51 | 913.52 ± 0.52 | 917.31 ± 0.52 | 920.96 ± 0.52 | 924.51 ± 0.53 | 928 ± 0.53 | 931.44 ± 0.53 | 934.88 ± 0.53
303.15 K, x1 = 0.6026 | 912.38 ± 0.52 | 916.33 ± 0.52 | 920.1 ± 0.52 | 923.74 ± 0.53 | 927.27 ± 0.53 | 930.75 ± 0.53 | 934.2 ± 0.53 | 937.68 ± 0.54
303.15 K, x1 = 0.701 | 916.45 ± 0.52 | 920.39 ± 0.52 | 924.17 ± 0.53 | 927.81 ± 0.53 | 931.36 ± 0.53 | 934.84 ± 0.54 | 938.28 ± 0.54 | 941.72 ± 0.54
303.15 K, x1 = 0.7881 | 919.15 ± 0.52 | 923.04 ± 0.53 | 926.8 ± 0.53 | 930.44 ± 0.54 | 934.01 ± 0.54 | 937.52 ± 0.54 | 941.01 ± 0.55 | 944.48 ± 0.55
303.15 K, x1 = 0.897 | 921.41 ± 0.53 | 925.26 ± 0.54 | 929.01 ± 0.54 | 932.67 ± 0.55 | 936.24 ± 0.55 | 939.76 ± 0.55 | 943.23 ± 0.56 | 946.67 ± 0.56
303.15 K, x1 = 0.9286 | 922.08 ± 0.54 | 926.03 ± 0.54 | 929.81 ± 0.54 | 933.47 ± 0.55 | 937.03 ± 0.55 | 940.52 ± 0.56 | 943.99 ± 0.56 | 947.48 ± 0.56
303.15 K, x1 = 0.961 | 922.67 ± 0.54 | 926.57 ± 0.54 | 930.33 ± 0.55 | 933.98 ± 0.55 | 937.54 ± 0.56 | 941.04 ± 0.56 | 944.51 ± 0.56 | 947.99 ± 0.56
313.15 K, x1 = 0.0303 | 792.52 ± 0.51 | 797.34 ± 0.52 | 802.01 ± 0.53 | 806.47 ± 0.54 | 810.73 ± 0.55 | 814.85 ± 0.56 | 818.84 ± 0.58 | 822.75 ± 0.59
313.15 K, x1 = 0.0601 | 808.67 ± 0.51 | 813.36 ± 0.52 | 817.9 ± 0.53 | 822.24 ± 0.54 | 826.41 ± 0.55 | 830.42 ± 0.56 | 834.31 ± 0.57 | 838.11 ± 0.58
313.15 K, x1 = 0.1002 | 826.53 ± 0.51 | 831.11 ± 0.52 | 835.57 ± 0.52 | 839.84 ± 0.53 | 843.93 ± 0.54 | 847.86 ± 0.55 | 851.66 ± 0.56 | 855.32 ± 0.57
313.15 K, x1 = 0.2005 | 857.05 ± 0.51 | 861.4 ± 0.52 | 865.62 ± 0.52 | 869.66 ± 0.53 | 873.55 ± 0.53 | 877.31 ± 0.54 | 880.98 ± 0.54 | 884.59 ± 0.55
313.15 K, x1 = 0.3009 | 876.08 ± 0.51 | 880.25 ± 0.52 | 884.34 ± 0.52 | 888.29 ± 0.52 | 892.1 ± 0.53 | 895.78 ± 0.53 | 899.34 ± 0.54 | 902.8 ± 0.54
313.15 K, x1 = 0.4008 | 888.55 ± 0.51 | 892.6 ± 0.52 | 896.62 ± 0.52 | 900.51 ± 0.52 | 904.28 ± 0.53 | 907.92 ± 0.53 | 911.43 ± 0.54 | 914.81 ± 0.54
313.15 K, x1 = 0.4516 | 893.1 ± 0.51 | 897.1 ± 0.52 | 901.09 ± 0.52 | 904.98 ± 0.52 | 908.76 ± 0.53 | 912.41 ± 0.53 | 915.91 ± 0.54 | 919.27 ± 0.54
313.15 K, x1 = 0.49 | 896.14 ± 0.51 | 900.12 ± 0.52 | 904.09 ± 0.52 | 907.97 ± 0.52 | 911.73 ± 0.53 | 915.36 ± 0.53 | 918.87 ± 0.54 | 922.22 ± 0.54
313.15 K, x1 = 0.552 | 900.13 ± 0.51 | 904.12 ± 0.52 | 908.1 ± 0.52 | 911.97 ± 0.53 | 915.72 ± 0.53 | 919.34 ± 0.53 | 922.83 ± 0.54 | 926.18 ± 0.54
313.15 K, x1 = 0.5881 | 902.29 ± 0.52 | 906.26 ± 0.52 | 910.2 ± 0.52 | 914.04 ± 0.53 | 917.76 ± 0.53 | 921.35 ± 0.53 | 924.82 ± 0.54 | 928.16 ± 0.54
313.15 K, x1 = 0.7048 | 907.14 ± 0.52 | 911.12 ± 0.52 | 915.08 ± 0.53 | 918.92 ± 0.53 | 922.65 ± 0.54 | 926.25 ± 0.54 | 929.72 ± 0.54 | 933.06 ± 0.55
313.15 K, x1 = 0.8042 | 910.23 ± 0.53 | 914.21 ± 0.53 | 918.18 ± 0.54 | 922.04 ± 0.54 | 925.78 ± 0.54 | 929.4 ± 0.55 | 932.87 ± 0.55 | 936.18 ± 0.55
313.15 K, x1 = 0.8998 | 912.3 ± 0.53 | 916.37 ± 0.54 | 920.38 ± 0.54 | 924.25 ± 0.55 | 927.99 ± 0.55 | 931.6 ± 0.56 | 935.1 ± 0.56 | 938.49 ± 0.56
313.15 K, x1 = 0.9373 | 913.06 ± 0.54 | 917.05 ± 0.54 | 921 ± 0.55 | 924.83 ± 0.55 | 928.56 ± 0.56 | 932.18 ± 0.56 | 935.71 ± 0.56 | 939.17 ± 0.57
313.15 K, x1 = 0.9651 | 913.5 ± 0.54 | 917.5 ± 0.54 | 921.47 ± 0.55 | 925.34 ± 0.55 | 929.11 ± 0.56 | 932.78 ± 0.56 | 936.35 ± 0.57 | 939.83 ± 0.57
